According to ChEMBL document CHEMBL4732150 (J Med Chem, 2021):

Columns and labels:
[1] = Tmax in Sprague-Dawley rat at 6 mg/kg/day, IG administered for 7 consecutive days by LC-MS/MS analysis; assay type: ADME, organism-based; conditions: in vivo, po, time 7 day
in vivo [2] = conditions: Sprague-Dawley, rat, plasma, po, 6 mg/kg
[3] = Tmax in Sprague-Dawley rat assessed as AZ5104-D2 at 6 mg/kg/day, IG administered for 7 consecutive days by LC-MS/MS analysis; assay type: ADME, organism-based; conditions: in vivo, po, 168 h, time 7 day
in vivo [4] = conditions: Sprague-Dawley, rat, po, 12 mg/kg
[5] = Cmax in Sprague-Dawley rat at 6 mg/kg/day, IG administered for 7 consecutive days by LC-MS/MS analysis; assay type: ADME, organism-based; set-up: route […], time 7 day, dose 6 mg/kg/day; conditions: in vivo, po
[6] = Intrinsic clearance in cynomolgus monkey liver microsomes preincubated for 10 mins under shaking condition followed by NADPH generating system addition and measured up to 60 mins by LC-MS/MS analysis; assay type: ADME, Macaca fascicularis, Microsome; conditions: 1 h, time <=70 min
[7] = Toxicity in Balb/c nude mouse xenografted with human NCI-H1975 cells harboring EGFR L858R/T790M mutant assessed as change in body weight at 3 to 5 mg/kg, po QD administered via gavage for 24 days and measured twice weekly; assay type: organism-based; conditions: in vivo, 576 h, dose 3-5 mg/kg, time 24 day
[8] = Cmax in Sprague-Dawley rat assessed as AZ5104-D2 at 6 mg/kg/day, IG administered for 7 consecutive days by LC-MS/MS analysis; assay type: ADME, organism-based; set-up: route […], dose 6 mg/kg/day, time 7 day; conditions: in vivo, po, 168 h
[9] = Cmax in Sprague-Dawley rat at 2 mg/kg, IG administered as single dose and measured upto 24 hrs by LC-MS/MS analysis; assay type: ADME, organism-based; set-up: route […], dose 2 mg/kg, time <=24; conditions: in vivo, po
[10] = Intrinsic clearance in Sprague-Dawley rat liver microsomes preincubated for 10 mins under shaking condition followed by NADPH generating system addition and measured up to 60 mins by LC-MS/MS analysis; assay type: ADME, Microsome; conditions: 1 h, time <=70 min
[11] = (§1) Drug metabolism in cynomolgus monkey liver microsomes assessed as 3,3-dideuterio-N-[4-methoxy-2-(methylamino)-5-[[4-[1-(trideuteriomethyl)indol-3-yl]pyrimidin-2-yl]amino]phenyl]prop-2-enamide metabolite formation preincubated for 10 mins under shaking condition followed by NADPH generating system addition and measured up to 60 mins by LC-MS/MS analysis; assay type: ADME, Macaca fascicularis, Microsome; conditions: 1 h, time <=70 min
Cytochrome P450 2C8 = molecular target: T1, Cytochrome P450 2C8 (Homo sapiens, UniProt P10632); experiment: Inhibition of CYP2C8 in human liver microsomes using amodiaquine as substrate preincubated for 10 mins in presence of NADPH generating system followed by substrate addition and measured after 10 mins by LC-MS/MS analysis; assay type: ADME
T1 sequence (P10632 whole entry): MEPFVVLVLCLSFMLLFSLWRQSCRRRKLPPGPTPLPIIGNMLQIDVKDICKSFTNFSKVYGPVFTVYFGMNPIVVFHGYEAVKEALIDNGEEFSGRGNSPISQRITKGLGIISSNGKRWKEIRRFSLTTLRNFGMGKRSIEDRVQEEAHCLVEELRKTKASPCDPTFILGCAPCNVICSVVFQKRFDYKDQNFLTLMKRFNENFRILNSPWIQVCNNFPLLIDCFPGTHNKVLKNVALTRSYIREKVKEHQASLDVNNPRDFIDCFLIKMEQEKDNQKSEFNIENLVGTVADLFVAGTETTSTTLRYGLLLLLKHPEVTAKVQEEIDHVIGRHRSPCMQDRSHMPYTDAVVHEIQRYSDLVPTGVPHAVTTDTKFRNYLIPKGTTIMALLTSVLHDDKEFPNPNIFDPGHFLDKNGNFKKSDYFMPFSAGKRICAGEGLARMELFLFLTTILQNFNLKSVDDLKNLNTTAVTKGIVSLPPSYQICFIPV

in vivo [12] = conditions: Sprague-Dawley, rat, iv, 2 mg/kg
[13] = Half life in cynomolgus monkey liver microsomes preincubated for 10 mins under shaking condition followed by NADPH generating system addition and measured up to 60 mins by LC-MS/MS analysis
[14] = Half life in Beagle dog liver microsomes preincubated for 10 mins under shaking condition followed by NADPH generating system addition and measured up to 60 mins by LC-MS/MS analysis
[15] = Oral bioavailability in Sprague-Dawley rat at 2 mg/kg, IG administered as single dose and measured upto 24 hrs by LC-MS/MS analysis; assay type: ADME, organism-based; conditions: in vivo
[16] = Oral bioavailability in Sprague-Dawley rat at 6 mg/kg/day, IG administered for 7 consecutive days by LC-MS/MS analysis; assay type: ADME, organism-based; conditions: in vivo, time 7 day
[17] = Intrinsic clearance in human liver microsomes preincubated for 10 mins under shaking condition followed by NADPH generating system addition and measured up to 60 mins by LC-MS/MS analysis; assay type: ADME, Microsome; conditions: 1 h, time <=70 min
[18] = Drug metabolism in CD1 mouse liver microsomes assessed as 3,3-dideuterio-N-[4-methoxy-2-[methyl-[2-(methylamino)ethyl]amino]-5-[[4-[1-(trideuteriomethyl)indol-3-yl]pyrimidin-2-yl]amino]phenyl]prop-2-enamide metabolite formation preincubated for 10 mins under shaking condition followed by NADPH generating system addition and measured up to 60 mins by LC-MS/MS analysis; assay type: ADME, Microsome; conditions: 1 h, time <=70 min
Cytochrome P450 1A2 = molecular target: T2, Cytochrome P450 1A2 (Homo sapiens, UniProt P05177); experiment: Inhibition of CYP1A2 in human liver microsomes using phenacetin as substrate preincubated for 10 mins in presence of NADPH generating system followed by substrate addition and measured after 3 mins by LC-MS/MS analysis; assay type: ADME
T2 sequence (P05177 whole entry): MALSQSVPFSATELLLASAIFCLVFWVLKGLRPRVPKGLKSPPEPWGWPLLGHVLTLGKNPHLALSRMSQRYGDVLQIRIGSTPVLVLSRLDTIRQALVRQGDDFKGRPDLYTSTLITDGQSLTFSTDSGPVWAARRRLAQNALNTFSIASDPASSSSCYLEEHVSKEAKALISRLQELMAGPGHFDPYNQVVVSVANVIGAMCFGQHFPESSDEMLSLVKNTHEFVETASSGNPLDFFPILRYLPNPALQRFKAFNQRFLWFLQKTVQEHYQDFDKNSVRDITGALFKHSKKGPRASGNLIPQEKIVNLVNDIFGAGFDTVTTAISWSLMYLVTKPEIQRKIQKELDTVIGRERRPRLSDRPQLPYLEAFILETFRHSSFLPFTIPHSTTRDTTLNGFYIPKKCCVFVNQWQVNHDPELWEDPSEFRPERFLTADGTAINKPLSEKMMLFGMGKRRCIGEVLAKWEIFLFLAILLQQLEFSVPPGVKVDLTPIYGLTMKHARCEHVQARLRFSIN

[19] = as §1, with “Sprague-Dawley rat” for “cynomolgus monkey”; assay type: ADME, Microsome; conditions: 1 h, time <=70 min
[20] = Cmax in Sprague-Dawley rat at 2 mg/kg, iv administered as single dose and measured upto 24 hrs by LC-MS/MS analysis; assay type: ADME, organism-based; set-up: route intravenous, dose 2 mg/kg, time <=24; conditions: in vivo
[21] = Drug metabolism in CD1 mouse liver microsomes assessed as 3,3-dideuterio-N-[4-methoxy-2-(methylamino)-5-[[4-[1-(trideuteriomethyl)indol-3-yl]pyrimidin-2-yl]amino]phenyl]prop-2-enamide metabolite formation preincubated for 10 mins under shaking condition followed by NADPH generating system addition and measured up to 60 mins by LC-MS/MS analysis; assay type: ADME, Microsome; conditions: 1 h, time <=70 min
in vitro = conditions: human, liver microsomes
[22] = Oral bioavailability in Sprague-Dawley rat at 12 mg/kg, IG administered as single dose and measured upto 24 hrs by LC-MS/MS analysis; assay type: ADME, organism-based; conditions: in vivo

Compound CS(=O)(=O)O.[2H]C([2H])=CC(=O)Nc1cc(Nc2nccc(-c3cn(C([2H])([2H])[2H])c4ccccc34)n2)c(OC)cc1N(C)CCN(C)C has a Tmax [1] of 4.67 h, a half-life at 168 h (in vivo [2]) of 3.27 h and a Tmax [3] of 6.8 h. The CL/F at 24 h (in vivo [4]) was 248 mL/min/kg, the Cmax [5] was 113 nM and the CLint [6] was 54.2 µL/min/mg. For the same compound, the Activity [7] was “Non-Toxic”, the Cmax [8] was 0.395 nM and the Cmax [9] was 46.7 nM. For the same compound, the CLint [10] was 40 µL/min/mg, the Drug metabolism [11] was “Metabolite_Detected” and the IC50 (Cytochrome P450 2C8) was 29.3 µM. It also gave a half-life at 24 h (in vivo [12]) of 5.4 h, a half-life at 1 h [13] of 0.427 h and a half-life at 1 h [14] of 0.377 h. The bioavailability [15] was 41.2%, the bioavailability [16] was 29.6% and the CLint [17] was 9.6 µL/min/mg. For the same compound, the Drug metabolism [18] was “Metabolite_Detected”, the IC50 (Cytochrome P450 1A2) was 39.8 µM and the Drug metabolism [19] was “Metabolite_Detected”. The Cmax [20] was 277 nM, the Drug metabolism [21] was “Metabolite_Detected” and the half-life at 1 h (in vitro) was 2.4 h. The bioavailability [22] was 43%.
